Experimental data published in US20230416329A1, “A PEPTIDE WITH DISULFIDE BONDS AND INHIBITORY ACTIVITY AGAINST SERINE PROTEASES, DERIVED HYBRID PEPTIDES THEREOF, AND USES THEREOF” (INSTITUTE OF MATERIA MEDICA , CHINESE ACADEMY OF MEDICAL …, priority 2020, published 2023).
Like-named read-outs stand apart in the source and are kept apart here. Bridge positions count the residues as written; N and C are the ends. Square brackets hold non-standard residues; d marks the D form. Peptide text beside a SMILES is read from it. Nle = CCCC[C@H](N)C(=O)O

Target: T1, bovine trypsin (Bos taurus, UniProt P00760)
T1 sequence (P00760 24-246): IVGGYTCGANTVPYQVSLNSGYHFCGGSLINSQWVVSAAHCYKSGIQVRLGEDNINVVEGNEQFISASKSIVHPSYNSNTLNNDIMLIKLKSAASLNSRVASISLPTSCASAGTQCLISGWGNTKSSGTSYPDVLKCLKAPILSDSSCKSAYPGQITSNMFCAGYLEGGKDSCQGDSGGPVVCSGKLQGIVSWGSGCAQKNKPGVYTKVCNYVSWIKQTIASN
Experiment: Trypsin inhibitory activity of peptides (BApNA hydrolysis, OD405; IC50, Ki, residual activity)
Format: biochemical
Outline: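 Trypsin (50 nM final) preincubated with peptides at 37 °C in 50 mM Tris-HCl pH 7.8, 20 mM CaCl2; BApNA added (1.22 mM final), 260 min at 37 °C, then OD405 read. Residual activity from enzyme-only and substrate-only controls; IC50 fitted and converted to Ki via Ki=IC50/(1+S/Km), Km measured separately for BApNA.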

[1] = Ki=IC50/(1+S/Km), Km 0.33 mM, read-out: Ki
[2] = trypsin 50 nM, BApNA 1.22 mM, read-out: IC50

| Structure (SMILES) | inhibitory activity against trypsin (in words) | Ki [1] [µM] | Residual trypsin activity (peptide 0.000098 μM) [%] | Residual trypsin activity (peptide 0.00098 μM) [%] | Residual trypsin activity (peptide 0.0098 μM) [%] | Residual trypsin activity (peptide 0.0488 μM) [%] | Residual trypsin activity (peptide 0.0780 μM) [%] | Residual trypsin activity (peptide 0.098 μM) [%] | Residual trypsin activity (peptide 0.98 μM) [%] | Residual trypsin activity (peptide 9.76 μM) [%] | Residual trypsin activity (peptide 97.56 μM) [%] | IC50 [2] [µM] | other results |
| --- | --- | --- | --- | --- | --- | --- | --- | --- | --- | --- | --- | --- | --- |
| CC[C@H](C)[C@@H]1NC(=O)[C@@H]2CCCN2C(=O)[C@@H]2CCCN2C(=O)[C@H]([C@@H](C)CC)NC(=O)[C@H](CO)NC(=O)[C@H](CCCCN)NC(=O)[C@H]([C@@H](C)O)NC(=O)[C@H](CO)NC(=O)[C@H](CCCNC(=N)N)NC(=O)CNC(=O)[C@@H](N)CSSC[C@@H](C(=O)N[C@@H](Cc2ccccc2)C(=O)O)NC1=O [BT47] (H-CGRSTKSIPPICF-OH; disulfide 1-12; C-terminus assumed) | good inhibitory activities against trypsin | 0.01 | 103.0 ± 5.2 | 105.1 ± 3.6 | 107.9 ± 5.8 | 57.4 ± 1.1 | 39.0 ± 3.8 | 5.6 ± 0.7 | 0.2 ± 0.0 | 0.0 ± 0.1 | 0.1 ± 0.0 | 0.05 | inhibitory activity against trypsin (in words) (listed as SEQ ID NO: 47): excellent trypsin inhibitory activities |
| CC[C@H](C)[C@@H]1NC(=O)[C@@H]2CCCN2C(=O)[C@@H]2CCCN2C(=O)[C@H]([C@@H](C)CC)NC(=O)[C@H](CO)NC(=O)[C@H](CCCCN)NC(=O)[C@H]([C@@H](C)O)NC(=O)[C@H](CC(C)C)NC(=O)[C@H](CCCNC(=N)N)NC(=O)CNC(=O)[C@@H](N)CSSC[C@@H](C(=O)N[C@@H](Cc2ccccc2)C(=O)O)NC1=O [BT48] (H-CGRLTKSIPPICF-OH; disulfide 1-12; N-terminus and C-terminus assumed) |  | 0.04 |  |  |  |  |  |  |  |  |  |  |  |
| CC[C@H](C)[C@@H]1NC(=O)[C@H](CCCNC(=N)N)NC(=O)CNC(=O)[C@@H](N)CSSC[C@@H](C(=O)N[C@@H](Cc2ccccc2)C(=O)O)NC(=O)[C@H]([C@@H](C)CC)NC(=O)[C@@H]2CCCN2C(=O)[C@@H]2CCCN2C(=O)[C@H]([C@@H](C)CC)NC(=O)[C@H](CO)NC(=O)[C@H](CCCCN)NC(=O)[C@H]([C@@H](C)O)NC1=O [BT49] (H-CGRITKSIPPICF-OH; disulfide 1-12; C-terminus assumed) | excellent trypsin inhibitory activities | 0.11 |  |  |  |  |  |  |  |  |  |  |  |
| CCCC[C@@H]1NC(=O)[C@H](CCCNC(=N)N)NC(=O)CNC(=O)[C@@H](N)CSSC[C@@H](C(=O)N[C@@H](Cc2ccccc2)C(=O)O)NC(=O)[C@H]([C@@H](C)CC)NC(=O)[C@@H]2CCCN2C(=O)[C@@H]2CCCN2C(=O)[C@H]([C@@H](C)CC)NC(=O)[C@H](CO)NC(=O)[C@H](CCCCN)NC(=O)[C@H]([C@@H](C)O)NC1=O [BT50] (H-CGR[Nle]TKSIPPICF-OH; disulfide 1-12; C-terminus assumed) | good inhibitory activities against trypsin | 0.01 | 106.1 ± 2.6 | 108.5 ± 1.0 | 105.0 ± 3.9 | 73.5 ± 1.6 | 48.9 ± 1.8 | 22.6 ± 5.7 | 0.1 ± 0.0 | 0.0 ± 0.1 | 0.0 ± 0.1 | 0.07 | inhibitory activity against trypsin (in words) (listed as SEQ ID NO: 50): excellent trypsin inhibitory activities |
| CC[C@H](C)[C@@H]1NC(=O)[C@@H]2CCCN2C(=O)[C@@H]2CCCN2C(=O)[C@H]([C@@H](C)CC)NC(=O)[C@H](CO)NC(=O)[C@H](CCCCN)NC(=O)[C@H]([C@@H](C)O)NC(=O)[C@H](C(C)C)NC(=O)[C@H](CCCNC(=N)N)NC(=O)CNC(=O)[C@@H](N)CSSC[C@@H](C(=O)N[C@@H](Cc2ccccc2)C(=O)O)NC1=O [BT51] (H-CGRVTKSIPPICF-OH; disulfide 1-12) | excellent trypsin inhibitory activities | 0.09 |  |  |  |  |  |  |  |  |  |  |  |
| CC[C@H](C)[C@@H]1NC(=O)[C@@H]2CCCN2C(=O)[C@@H]2CCCN2C(=O)[C@H]([C@@H](C)CC)NC(=O)[C@H](CO)NC(=O)[C@H](CCCCN)NC(=O)[C@H]([C@@H](C)O)NC(=O)[C@H](Cc2ccccc2)NC(=O)[C@H](CCCNC(=N)N)NC(=O)CNC(=O)[C@@H](N)CSSC[C@@H](C(=O)N[C@@H](Cc2ccccc2)C(=O)O)NC1=O [BT52] (H-CGRFTKSIPPICF-OH; disulfide 1-12; N-terminus and C-terminus assumed) |  | 0.03 |  |  |  |  |  |  |  |  |  | 0.13 |  |
| CC[C@H](C)[C@@H]1NC(=O)[C@@H]2CCCN2C(=O)[C@@H]2CCCN2C(=O)[C@H]([C@@H](C)CC)NC(=O)[C@H](CO)NC(=O)[C@H](CCCCN)NC(=O)[C@H]([C@@H](C)O)NC(=O)[C@H](Cc2ccc(O)cc2)NC(=O)[C@H](CCCNC(=N)N)NC(=O)CNC(=O)[C@@H](N)CSSC[C@@H](C(=O)N[C@@H](Cc2ccccc2)C(=O)O)NC1=O [BT53] (H-CGRYTKSIPPICF-OH; disulfide 1-12; C-terminus assumed) | good inhibitory activities against trypsin |  | 104.2 ± 0.5 | 108.9 ± 2.0 | 106.0 ± 0.4 | 87.4 ± 4.9 |  | 63.0 ± 1.9 | 0.5 ± 0.2 | 0.2 ± 0.0 | 0.0 ± 0.1 |  | IC50: 0.12 µM; Ki: 0.03 µM; inhibitory activity against trypsin (in words) (listed as SEQ ID NO: 53): excellent trypsin inhibitory activities; Residual trypsin activity (peptide 0.0585 μM): 84.9 ± 2.2%; Residual trypsin activity (peptide 0.07317 μM): 75.2 ± 2.8% |
| CC[C@H](C)[C@@H]1NC(=O)[C@@H]2CCCN2C(=O)[C@@H]2CCCN2C(=O)[C@H]([C@@H](C)CC)NC(=O)[C@H](CO)NC(=O)[C@H](CCCCN)NC(=O)[C@H]([C@@H](C)O)NC(=O)[C@H](CCC(N)=O)NC(=O)[C@H](CCCNC(=N)N)NC(=O)CNC(=O)[C@@H](N)CSSC[C@@H](C(=O)N[C@@H](Cc2ccccc2)C(=O)O)NC1=O [BT54] (H-CGRQTKSIPPICF-OH; disulfide 1-12; C-terminus assumed) | good inhibitory activities against trypsin | 0.01 | 101.0 ± 3.9 | 99.2 ± 1.7 | 99.9 ± 4.1 | 65.8 ± 6.7 | 24.3 ± 2.4 | 7.2 ± 2.4 | 0.1 ± 0.0 | −0.1 ± 0.0 |  | 0.06 | inhibitory activity against trypsin (in words) (listed as SEQ ID NO: 54): excellent trypsin inhibitory activities; Residual trypsin activity (peptide 0.0585 μM): 58.4 ± 4.3% |
| CC[C@H](C)[C@@H]1NC(=O)[C@@H]2CCCN2C(=O)[C@@H]2CCCN2C(=O)[C@H]([C@@H](C)CC)NC(=O)[C@H](CO)NC(=O)[C@H](CCCCN)NC(=O)[C@H]([C@@H](C)O)NC(=O)[C@H](CC(N)=O)NC(=O)[C@H](CCCNC(=N)N)NC(=O)CNC(=O)[C@@H](N)CSSC[C@@H](C(=O)N[C@@H](Cc2ccccc2)C(=O)O)NC1=O [BT55] (H-CGRNTKSIPPICF-OH; disulfide 1-12; C-terminus assumed) | excellent trypsin inhibitory activities | 0.06 |  |  |  |  |  |  |  |  |  |  |  |
